Test results from PubChem BioAssay (NCI).
Values joined by “and” are separate entries in the source; they are usually repeats but may differ in a detail not shown here. Identical values can stand only once.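 Growth conditions: 96-well plates. Treatment: test compound, 48 hours, 5 concentrations. Analysis: linear interpolation between bracketing concentrations; unreached endpoints set to highest concentration. The concentration for 50% growth inhibition is given as GI50. TGI: concentration producing complete growth inhibition.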

How the values were obtained:
Test in all cases: NCI-60 cell line screen, 48 h
UO-31 renal = test system: UO-31 renal
RXF 393 renal = test system: RXF 393 renal
MALME-3M melanoma = test system: MALME-3M melanoma
M14 melanoma = test system: M14 melanoma
PC-3 prostate = test system: PC-3 prostate
HL-60(TB) leukemia = test system: HL-60(TB) leukemia
COLO 205 colon = test system: COLO 205 colon
SF-268 CNS = test system: SF-268 CNS
SN12C renal = test system: SN12C renal
HS 578T breast = test system: HS 578T breast

Row | SMILES | GI50 (UO-31 renal) | TGI (UO-31 renal) [µM] | GI50 (RXF 393 renal) [µM] | TGI (RXF 393 renal) | GI50 (MALME-3M melanoma) [µM] | TGI (MALME-3M melanoma) | GI50 (M14 melanoma) | TGI (M14 melanoma) | GI50 (PC-3 prostate) [µM] | TGI (PC-3 prostate) [µM] | GI50 (HL-60(TB) leukemia) [µM] | TGI (HL-60(TB) leukemia) | GI50 (COLO 205 colon) [µM] | TGI (COLO 205 colon) | GI50 (SF-268 CNS) | TGI (SF-268 CNS) | GI50 (SN12C renal) | TGI (SN12C renal) | GI50 (HS 578T breast) [µM] | TGI (HS 578T breast) [µM]
1 | O=C1C(Cl)=C(Nc2ccc3cn[nH]c3c2)C(=O)c2ccccc21 | 1.25 µM | 2.51 | 1.54 | 2.92 µM | 0.666 | 1.95 µM | 1.59 µM | 3.01 µM | 1.17 | 2.44 | 1.7 | 4.45 µM | 1.42 | 2.89 µM | 1.63 µM | 3 µM | 1.49 µM | 3.11 µM | 0.5 | 3.88
2 | COc1cc(-c2oc3c(OC)c(OC)cc(O)c3c(=O)c2OC)ccc1O | 3.88 µM and 8.21 µM | > 100 | – | > 100 µM | – | > 100 µM | 3 µM and 6.26 µM | > 100 µM | – | > 50 | – | 7.58 µM | – | > 100 µM | 34.4 µM and 15.3 µM | > 100 µM | 3.73 µM and 12.4 µM | > 100 µM | – | 29.7
3 | CCC(=O)OC1CCn2c1nc1c2C(=O)C(C)=C(N2CC2)C1=O (centres undefined) | – | 0.136 | 0.0107 | 0.026 µM and 0.111 µM | 0.0307 | 0.0961 µM and 0.114 µM | 0.0185 µM | 0.0436 µM and 0.141 µM | – | 0.306 | 0.169 | 0.432 µM and 2.63 µM | 0.101 | 0.235 µM and 0.561 µM | 0.0309 µM | 1.22 µM and 0.254 µM | 0.0285 µM | 0.119 µM and 0.333 µM | – | 0.78
4 | COc1cc2c3c(n(CCN)c(=O)c2cc1OC)-c1cc2c(cc1C3=O)OCO2 | 0.226 µM | 1.91 | 1.54 | 4.06 µM | 0.24 | 6.12 µM | < 0.0185 µM | 1.41 µM | 0.671 | 2.89 | – | > 100 µM | 0.8 | 4.4 µM | 0.749 µM | 3.18 µM | 0.254 µM | 1.3 µM | 1.85 | 4.51
5 | NCCNCC(O)CO (centres undefined) | – | > 100 | – | > 100 µM | – | > 100 µM | – | > 100 µM | – | > 100 | – | > 100 µM | – | > 100 µM | – | > 100 µM | – | > 100 µM | – | > 100
6 | CC(CN)[C@@H]1CC[C@]2(CO)CC[C@]3(C)[C@H](CC[C@@H]4[C@@]5(C)CCC(NCCO)C(C)(C)[C@@H]5CC[C@]43C)[C@@H]12 (some centres undefined) | 2.43 µM | 9.57 | 1.51 | 2.97 µM | 1.62 | 3.16 µM | 1.92 µM | 3.68 µM | 2.53 | 11.4 | 2.65 | 7.47 µM | 1.73 | 3.55 µM | 1.75 µM | 3.94 µM | 1.94 µM | 3.61 µM | 1.87 | 4.59
7 | Nc1ccc(C#Cc2cncnc2Nc2ccc(OCc3cccc(F)c3)c(Cl)c2)cc1 | 3.2 µM | > 25 | 5 | > 25 µM | > 25 | > 25 µM | > 23.6 µM | > 25 µM | 8.91 | > 25 | 5.68 | > 25 µM | > 25 | > 25 µM | 16.5 µM | > 25 µM | > 15.6 µM | > 25 µM | 6.07 | 24.2
8 | COC(=O)c1ccccc1NC(=O)C(=O)CC(=O)c1ccccc1NC1=CC(=O)C(=O)c2ccccc21 | – | 69 | – | 57.5 µM | – | 11.1 µM | – | 17.9 µM | – | 42.3 | – | 12 µM | – | 53.1 µM | – | 30.3 µM | – | 15.1 µM | – | 37.2
9 | O=C(Nc1cnn2ccc(N3CCC[C@@H]3c3cc(F)ccc3F)nc12)N1CC[C@H](O)C1 | > 100 µM | > 100 | > 100 | > 100 µM | > 100 | > 100 µM | > 100 µM | > 100 µM | > 100 | > 100 | > 100 | > 100 µM | > 100 | > 100 µM | > 100 µM | > 100 µM | > 100 µM | > 100 µM | > 100 | > 100
10 | O=C1c2cccnc2-c2nc(/C=C/c3ccccc3)cc3c2c1nc1ccccc13 | 2.01 µM | 6.5 | 14.8 | 37.1 µM | 5.01 | 20.5 µM | 1.73 µM | 3.58 µM | 1.97 | 13.6 | 1.79 | 7.97 µM | 3.74 | 16.7 µM | 2.24 µM | > 21.2 µM | 2.77 µM | 9.01 µM | 3.74 | 18
11 | CCCCCCCCOc1ccc(/C=N/Nc2cc(C)nc3ccc(Cl)cc23)cc1 | 1.55 µM | 2.93 | 1.55 | 2.94 µM | 1.85 | 3.36 µM | 1.75 µM | 3.51 µM | 1.5 | 3.04 | 2 | 4.46 µM | 1.82 | 3.56 µM | 2.21 µM | 4.18 µM | 1.78 µM | 3.35 µM | 2.23 | 4.51
12 | COC(=O)[C@]12CC[C@@H](C)[C@H](C)[C@@H]1C1=CC[C@@H]3[C@@]4(C)C(C=O)=C[C@@](C)(COC(C)=O)[C@@H]4[C@H](O)C[C@@]3(C)[C@]1(C)CC2 | 1.57 µM | 3.84 | 1.56 | 3.03 µM | 1.76 | 3.63 µM | 2.15 µM | 5.51 µM | 1.73 | 5.74 | 2.53 | 5.42 µM | 2.14 | 4.96 µM | 2.65 µM | 9.14 µM | 2.3 µM | 6.08 µM | 2.67 | 9.43
13 | C=C1C(=O)O[C@H]2[C@H]1CC/C(COC(=O)C(=O)c1c[nH]c3ccc(OC)cc13)=C\CC[C@@]1(C)O[C@@H]21 | 4.6 µM | 7.91 | 3.21 | 6.84 µM | 6.43 | 11 µM | 5.18 µM | 10.4 µM | 6.08 | 11.1 | 5.13 | 12.5 µM | – | > 20.6 µM | 6.75 µM | 13 µM | 6.1 µM | 12.2 µM | 10.1 | 40.2
14 | COc1cc2c3c(n(CCCN)c(=O)c2cc1OC)-c1ccc(F)cc1C3=O | 8.15 µM | 23.7 | 7.64 | 26.6 µM | 9.22 | 28.5 µM | 1.44 µM | 11.4 µM | 1.41 | 6.64 | 8.15 | 24.9 µM | 1.79 | 5.4 µM | 3.08 µM | 20.3 µM | 4.29 µM | 17.4 µM | 6.49 | 13.6
15 | O=c1cccc(C#Cc2ccccc2)o1 | 3.41 µM | > 35.1 | 6.27 | 61.6 µM | 5.09 | 16.5 µM | 5.9 µM | > 22.8 µM | 3.41 | > 40.4 | 0.71 | 8.17 µM | 12.6 | > 44.9 µM | 5.34 µM | > 96.7 µM | 14.5 µM | > 53.2 µM | 6.5 | 25.9
